Source: PubChem BioAssay (NCI)
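Each compound was tested at five concentrations against cells in 96-well plates for 48 hours. TGI is the concentration that stops growth completely.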

Key:
Experiment in all cases: DTP human tumour cell line panel, 48 h
786-0 renal = system: 786-0 renal
A498 renal = system: A498 renal
A549 NSCLC = system: A549 NSCLC
ACHN renal = system: ACHN renal
BT-549 breast = system: BT-549 breast
CAKI-1 renal = system: CAKI-1 renal
CCRF-CEM leukemia = system: CCRF-CEM leukemia
COLO 205 colon = system: COLO 205 colon
DU-145 prostate = system: DU-145 prostate
EKVX NSCLC = system: EKVX NSCLC
HCC-2998 colon = system: HCC-2998 colon
HCT-116 colon = system: HCT-116 colon
HL-60(TB) leukemia = system: HL-60(TB) leukemia
HOP-62 NSCLC = system: HOP-62 NSCLC
HOP-92 NSCLC = system: HOP-92 NSCLC
HS 578T breast = system: HS 578T breast
HT29 colon = system: HT29 colon
IGROV1 ovarian = system: IGROV1 ovarian
K-562 leukemia = system: K-562 leukemia
KM12 colon = system: KM12 colon
LOX IMVI melanoma = system: LOX IMVI melanoma
M14 melanoma = system: M14 melanoma
MALME-3M melanoma = system: MALME-3M melanoma
MCF7 breast = system: MCF7 breast
MDA-MB-231 breast = system: MDA-MB-231 breast
MDA-MB-435 = system: MDA-MB-435
MDA-N = system: MDA-N
MOLT-4 leukemia = system: MOLT-4 leukemia
NCI-H226 lung = system: NCI-H226 lung
NCI-H23 lung = system: NCI-H23 lung
NCI-H460 lung = system: NCI-H460 lung
NCI-H522 lung = system: NCI-H522 lung
NCI/ADR-RES ovarian = system: NCI/ADR-RES ovarian
OVCAR-3 ovarian = system: OVCAR-3 ovarian
OVCAR-4 ovarian = system: OVCAR-4 ovarian
OVCAR-5 ovarian = system: OVCAR-5 ovarian
OVCAR-8 ovarian = system: OVCAR-8 ovarian
PC-3 prostate = system: PC-3 prostate
RPMI-8226 leukemia = system: RPMI-8226 leukemia
RXF 393 renal = system: RXF 393 renal
SF-268 CNS = system: SF-268 CNS
SF-295 CNS = system: SF-295 CNS
SF-539 CNS = system: SF-539 CNS
SK-MEL-2 melanoma = system: SK-MEL-2 melanoma
SK-MEL-28 melanoma = system: SK-MEL-28 melanoma
SK-MEL-5 melanoma = system: SK-MEL-5 melanoma
SK-OV-3 ovarian = system: SK-OV-3 ovarian
SN12C renal = system: SN12C renal
SNB-19 CNS = system: SNB-19 CNS
SNB-75 CNS = system: SNB-75 CNS
SW-620 colon = system: SW-620 colon
T-47D breast = system: T-47D breast
TK-10 renal = system: TK-10 renal
U251 CNS = system: U251 CNS
UACC-257 melanoma = system: UACC-257 melanoma
UACC-62 melanoma = system: UACC-62 melanoma
UO-31 renal = system: UO-31 renal

Measured: TGI

Cn1c(=O)c2c(=O)cc(N)[nH]c2n(C)c1=O
> 100 µM: 786-0 renal | A498 renal | A549 NSCLC | ACHN renal | BT-549 breast | CCRF-CEM leukemia | COLO 205 colon | DU-145 prostate | EKVX NSCLC | HCC-2998 colon | HCT-116 colon | HL-60(TB) leukemia | HOP-62 NSCLC | HOP-92 NSCLC | HS 578T breast | HT29 colon | IGROV1 ovarian | K-562 leukemia | KM12 colon | LOX IMVI melanoma | M14 melanoma | MALME-3M melanoma | MCF7 breast | MDA-MB-231 breast | MDA-MB-435 | MDA-N | MOLT-4 leukemia | NCI-H226 lung | NCI-H23 lung | NCI-H460 lung | NCI-H522 lung | NCI/ADR-RES ovarian | OVCAR-3 ovarian | OVCAR-4 ovarian | OVCAR-5 ovarian | OVCAR-8 ovarian | PC-3 prostate | RPMI-8226 leukemia | RXF 393 renal | SF-268 CNS | SF-295 CNS | SF-539 CNS | SK-MEL-2 melanoma | SK-MEL-28 melanoma | SK-MEL-5 melanoma | SK-OV-3 ovarian | SN12C renal | SNB-19 CNS | SNB-75 CNS | SW-620 colon | T-47D breast | TK-10 renal | U251 CNS | UACC-257 melanoma | UACC-62 melanoma | UO-31 renal
76.8 µM: CAKI-1 renal
